The source of these data is patent US8143287B2, “Thrombopoietin mimetics” (Stategics, Inc., priority 2006, dated 2012).

A word on the solubility: it is the concentration that dissolves in the medium under given conditions.

One data set in a line: Solubility in water. The format is physicochemical. As to conditions: parent compound without salt formation or use of specialized excipients. The method, then: A red solution of Compound 3f, 1 M HCl (0.75 mL, 0.75 mmol) and ethanol (1.5 mL) was cooled to 0 deg C. under nitrogen. A solution of 0.060 g of sodium nitrite in 1 mL of water was prepared separately and 0.25 mL (0.22 mmol of sodium nitrite) was added dropwise to the solution containing compound 3f with formation of a dark red-yellow color. The diazotization was monitored using TLC with 75% ethyl acetate-hexanes. Compound 1b (0.042 g, 0.21 mmol) was added after 30 min followed by sodium bicarbonate (0.086 g, 1.0 mmol) and additional ethanol (0.3 mL). The mixture was allowed to warm to 20 deg C., treated with additional sodium bicarbonate (0.073 g, 0.87 mmol) to adjust the pH to 7-8, and allowed to stir for 12 h. The mixture was diluted with ethyl acetate (100 mL) and 0.1 M HCl (5 mL). The aqueous layer was separated and extracted with 20 mL of ethyl acetate. The combined organics were washed with saturated sodium chloride (2×20 mL), and dried over sodium sulfate. The solvent was removed under reduced pressure and the residue purified by silica gel chromatography (40% ethyl acetate-hexanes) to afford Example 3 (0.0256 g, 29% yield over 2 steps). Electrospray MS [M]− 447.2.

In data set [1] the test system is CD34+ CD38− human bone marrow cells. Particulars: cited from earlier work.

With `CC1=NN(c2ccc(C)c(C)c2)C(=O)/C1=N\Nc1cccc(C2CCCC(C(=O)O)C2)c1O` (stereo not drawn) [Example 3, 3-(3′-{2-[1-(3,4-dimethylphenyl)-3-methyl-5-oxo-4,5-dihydro-1H-pyrazol-4-ylidene]hydrazino}-2′-hydroxy-phenyl)cyclohexane-1-carboxylic Acid], in the data set “Solubility in water”, the solubility turned out to be 140 µM.

As for Thrombopoietin [TPO], in data set [1] (following a 14-day incubation), the “expansion of multipotent progenitors” value was 40 fold. Also, in data set [1] (in response to KL+FL+IL-3+IL-6+EPO), the “enhancement of clonogenic growth” value was no more than 80%.
